What is called IC50 is the concentration that inhibits the measured activity by half.

Data on one compound can be found in ChEMBL document CHEMBL5370603, “N-(2-Aminophenyl)-benzamide Inhibitors of Class I HDAC Enzymes with Antiproliferative and Antifibrotic Activity” (J Med Chem, 2023).

Structures are written as SMILES. Activity calls are given as the source filed them. No cut-off for these calls is given here. Bounds are passed on as bounds.

For the first data set, the target named is Histone deacetylase 1 (Homo sapiens, UniProt Q13547). Nature of the data set: Inhibition of human recombinant HDAC1 using Ac-Leu-Gly-Lys(Ac)-AMC as substrate preincubated with enzyme for 30 mins followed by substrate addition and measured after 90 mins by fluorescence based analysis.
Sequence of Histone deacetylase 1 (Q13547 whole entry): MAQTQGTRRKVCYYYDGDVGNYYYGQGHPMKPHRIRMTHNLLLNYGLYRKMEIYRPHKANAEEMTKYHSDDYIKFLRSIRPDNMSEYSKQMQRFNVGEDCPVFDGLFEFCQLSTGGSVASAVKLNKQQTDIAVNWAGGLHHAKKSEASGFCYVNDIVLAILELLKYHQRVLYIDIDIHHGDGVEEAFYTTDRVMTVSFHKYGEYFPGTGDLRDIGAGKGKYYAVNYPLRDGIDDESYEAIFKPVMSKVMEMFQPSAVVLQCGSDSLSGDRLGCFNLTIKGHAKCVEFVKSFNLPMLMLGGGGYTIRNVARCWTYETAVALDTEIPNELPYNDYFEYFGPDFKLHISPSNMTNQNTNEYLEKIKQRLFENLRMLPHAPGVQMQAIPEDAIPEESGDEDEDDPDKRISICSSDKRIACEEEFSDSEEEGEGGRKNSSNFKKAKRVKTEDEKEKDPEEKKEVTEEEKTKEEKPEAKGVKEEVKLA
Conditions: not given
In the case of `Cl.Cl.Nc1ccccc1NC(=O)c1ccc(COc2ccc(CNC(=O)[C@H]3CCCN3)cc2)cc1`, the IC50 stood at 0.259 µM.

The target in another data set is Histone deacetylase 3 (Homo sapiens, UniProt O15379). Nature of the data set: Inhibition of human recombinant HDAC3 using Ac-Leu-Gly-Lys(Ac)-AMC as substrate preincubated with enzyme for 30 mins followed by substrate addition and measured after 90 mins by fluorescence based analysis.
Sequence of Histone deacetylase 3 (O15379 whole entry): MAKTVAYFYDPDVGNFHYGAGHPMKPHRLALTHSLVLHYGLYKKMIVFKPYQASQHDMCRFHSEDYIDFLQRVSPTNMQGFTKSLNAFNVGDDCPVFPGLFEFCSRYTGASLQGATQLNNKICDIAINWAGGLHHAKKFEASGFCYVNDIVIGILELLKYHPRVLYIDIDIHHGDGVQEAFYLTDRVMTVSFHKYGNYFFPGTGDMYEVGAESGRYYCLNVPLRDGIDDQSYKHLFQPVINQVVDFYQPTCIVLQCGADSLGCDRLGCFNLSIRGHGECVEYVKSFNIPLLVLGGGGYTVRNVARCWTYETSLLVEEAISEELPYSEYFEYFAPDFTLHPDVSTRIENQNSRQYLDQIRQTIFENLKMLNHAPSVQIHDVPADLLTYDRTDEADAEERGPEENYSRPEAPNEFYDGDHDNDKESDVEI
Conditions: not given
For `Cl.Cl.Nc1ccccc1NC(=O)c1ccc(COc2ccc(CNC(=O)[C@H]3CCCN3)cc2)cc1`, the IC50 was determined as 0.139 µM.

A further data set addresses T1, Protein deacetylase HDAC6 (Homo sapiens, UniProt Q9UBN7).
T1 sequence (Q9UBN7 whole entry): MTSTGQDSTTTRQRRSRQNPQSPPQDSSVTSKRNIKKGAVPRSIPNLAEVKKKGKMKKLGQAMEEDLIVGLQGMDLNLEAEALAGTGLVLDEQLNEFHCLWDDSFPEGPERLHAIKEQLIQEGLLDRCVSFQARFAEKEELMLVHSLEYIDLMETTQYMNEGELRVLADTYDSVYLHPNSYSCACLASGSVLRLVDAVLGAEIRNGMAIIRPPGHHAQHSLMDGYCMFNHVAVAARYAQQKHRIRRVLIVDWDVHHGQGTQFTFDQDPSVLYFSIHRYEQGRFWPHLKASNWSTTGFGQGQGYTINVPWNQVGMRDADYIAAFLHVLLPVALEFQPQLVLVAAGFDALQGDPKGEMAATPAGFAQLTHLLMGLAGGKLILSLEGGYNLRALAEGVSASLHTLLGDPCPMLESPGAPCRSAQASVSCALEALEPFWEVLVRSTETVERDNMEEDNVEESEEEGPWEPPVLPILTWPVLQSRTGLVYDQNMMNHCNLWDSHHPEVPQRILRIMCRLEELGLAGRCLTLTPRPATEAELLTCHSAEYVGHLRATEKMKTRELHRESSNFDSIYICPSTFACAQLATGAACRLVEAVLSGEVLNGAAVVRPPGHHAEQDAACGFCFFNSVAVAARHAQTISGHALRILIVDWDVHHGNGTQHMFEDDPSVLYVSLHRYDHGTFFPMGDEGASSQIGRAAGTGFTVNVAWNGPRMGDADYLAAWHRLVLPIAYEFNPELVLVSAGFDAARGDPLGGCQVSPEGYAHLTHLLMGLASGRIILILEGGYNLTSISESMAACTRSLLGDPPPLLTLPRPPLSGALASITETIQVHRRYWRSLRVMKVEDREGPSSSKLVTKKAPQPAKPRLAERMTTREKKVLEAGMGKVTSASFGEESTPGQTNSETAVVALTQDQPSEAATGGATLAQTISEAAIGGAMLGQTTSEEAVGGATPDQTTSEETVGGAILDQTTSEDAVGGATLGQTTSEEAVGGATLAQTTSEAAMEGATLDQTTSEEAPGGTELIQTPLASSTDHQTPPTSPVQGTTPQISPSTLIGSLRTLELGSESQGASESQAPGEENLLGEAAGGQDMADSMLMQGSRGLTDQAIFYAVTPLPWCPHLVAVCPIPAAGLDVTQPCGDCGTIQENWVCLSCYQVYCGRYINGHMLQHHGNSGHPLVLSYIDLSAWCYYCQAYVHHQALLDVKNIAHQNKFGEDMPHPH
Nature of the data set: Inhibition of C-terminal FLAG-tagged human recombinant full length HDAC6 expressed in baculovirus expression system using Boc-Lys(Ac)-AMC as substrate preincubated with enzyme for 15 mins followed by substrate addition and measured after 60 mins by fluorescence based analysis.
Conditions: not given
As for `Cl.Cl.Nc1ccccc1NC(=O)c1ccc(COc2ccc(CNC(=O)[C@H]3CCCN3)cc2)cc1`, the IC50 was greater than 10 µM.

In a further data set the target is T2, Histone deacetylase 8 (Homo sapiens, UniProt Q9BY41).
T2 sequence (Q9BY41 whole entry): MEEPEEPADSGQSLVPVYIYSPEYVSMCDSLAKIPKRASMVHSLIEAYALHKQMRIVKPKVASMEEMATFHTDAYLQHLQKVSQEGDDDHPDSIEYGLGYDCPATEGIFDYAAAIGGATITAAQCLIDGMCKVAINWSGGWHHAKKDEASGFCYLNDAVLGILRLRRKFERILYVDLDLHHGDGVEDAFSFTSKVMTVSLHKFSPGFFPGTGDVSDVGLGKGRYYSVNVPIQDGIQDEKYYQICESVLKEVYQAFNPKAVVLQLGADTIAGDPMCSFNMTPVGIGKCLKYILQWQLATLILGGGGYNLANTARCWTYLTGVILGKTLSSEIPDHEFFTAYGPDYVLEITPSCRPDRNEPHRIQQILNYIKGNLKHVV
Nature of the data set: Inhibition of C-terminal His-tagged human recombinant full length HDAC8 (1 to 377 residues) expressed in Sf9 cells using Ac-Leu-Gly-Lys(trifluoroAc)-AMC as substrate preincubated with enzyme for 30 mins followed by substrate addition and measured after 90 mins by fluorescence based analysis.
Conditions: not given
As for `Cl.Cl.Nc1ccccc1NC(=O)c1ccc(COc2ccc(CNC(=O)[C@H]3CCCN3)cc2)cc1`, the IC50 was greater than 10 µM.

A further data set deals with Histone deacetylase 4 (Homo sapiens, UniProt P56524). The experiment in a line: Inhibition of N-terminal GST-tagged/C-terminal His tagged human recombinant HDAC4 (627 to 1084 residues) expressed in baculovirus-infected Sf9 cells using Ac-Leu-Gly-Lys(trifluoroAc)-AMC as substrate preincubated with enzyme for 15 mins followed by substrate addition and measured after 60 mins by fluorescence based analysis.
Sequence of Histone deacetylase 4 (P56524 whole entry, the tested form may be a part): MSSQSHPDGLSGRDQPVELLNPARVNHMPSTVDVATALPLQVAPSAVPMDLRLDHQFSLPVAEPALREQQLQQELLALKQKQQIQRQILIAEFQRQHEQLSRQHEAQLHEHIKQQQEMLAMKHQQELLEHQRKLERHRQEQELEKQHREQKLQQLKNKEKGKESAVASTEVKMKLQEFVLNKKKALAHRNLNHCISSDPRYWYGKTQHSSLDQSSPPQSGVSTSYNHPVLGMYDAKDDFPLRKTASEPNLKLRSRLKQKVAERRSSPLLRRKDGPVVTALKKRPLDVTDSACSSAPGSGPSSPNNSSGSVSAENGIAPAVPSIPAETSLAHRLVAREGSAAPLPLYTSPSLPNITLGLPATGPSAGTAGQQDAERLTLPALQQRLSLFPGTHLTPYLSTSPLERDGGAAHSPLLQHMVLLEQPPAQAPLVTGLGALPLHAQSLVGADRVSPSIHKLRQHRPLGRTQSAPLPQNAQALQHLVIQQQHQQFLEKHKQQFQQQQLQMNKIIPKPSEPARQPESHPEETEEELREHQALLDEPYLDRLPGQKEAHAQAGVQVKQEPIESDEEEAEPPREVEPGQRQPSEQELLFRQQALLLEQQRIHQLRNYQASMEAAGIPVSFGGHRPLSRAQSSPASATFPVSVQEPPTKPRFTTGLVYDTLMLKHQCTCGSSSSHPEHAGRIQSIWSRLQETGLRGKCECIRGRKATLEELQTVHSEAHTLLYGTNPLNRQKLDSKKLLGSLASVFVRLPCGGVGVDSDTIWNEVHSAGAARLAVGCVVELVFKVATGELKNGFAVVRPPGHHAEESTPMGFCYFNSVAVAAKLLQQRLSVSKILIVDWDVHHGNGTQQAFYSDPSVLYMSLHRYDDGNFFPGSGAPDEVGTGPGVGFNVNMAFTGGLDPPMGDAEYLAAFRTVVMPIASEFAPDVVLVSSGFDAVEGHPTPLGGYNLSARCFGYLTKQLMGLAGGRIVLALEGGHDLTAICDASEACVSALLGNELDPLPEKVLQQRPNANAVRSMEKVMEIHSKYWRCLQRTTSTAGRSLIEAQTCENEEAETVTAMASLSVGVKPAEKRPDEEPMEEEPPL
Conditions: not given
For `Cl.Cl.Nc1ccccc1NC(=O)c1ccc(COc2ccc(CNC(=O)[C@H]3CCCN3)cc2)cc1`, the IC50 was greater than 100 µM.

A further data set deals with A549. The experiment in a line: Antiproliferative activity against human A549 cells assessed as inhibition of cell growth incubated for 72 hrs by MTT assay. The class given is functional, cell-based. To be noted: A549, 72 h. Background: Tetrazolium dyes change colour on reduction, which living cells bring about.
For `Cl.Cl.Nc1ccccc1NC(=O)c1ccc(COc2ccc(CNC(=O)[C@H]3CCCN3)cc2)cc1`, the IC50 was 6 µM.

The next data set concerns SF-268. Nature of the data set: Antiproliferative activity against human SF-268 cells assessed as inhibition of cell growth incubated for 72 hrs by MTT assay. The class given is functional, cell-based. To be noted: SF-268, 72 h.
As for `Cl.Cl.Nc1ccccc1NC(=O)c1ccc(COc2ccc(CNC(=O)[C@H]3CCCN3)cc2)cc1`, the IC50 amounted to 3.1 µM.

System in another data set: not listed separately
Nature of the data set: Toxicity against human primary lung fibroblasts assessed as effect on cell viability upto 20 uM incubated for 72 hrs by MTT assay. To be noted: fibroblast. The class given is cell-based.
For `Cl.Cl.Nc1ccccc1NC(=O)c1ccc(COc2ccc(CNC(=O)[C@H]3CCCN3)cc2)cc1`, the Activity entry is “Non-Toxic”.

The target of a further data set is T3, Class 1 histone deacetylase (Homo sapiens) (UniProt Q13547+O15379+Q92769+Q9BY41). The experiment in a line: Inhibition of class I HDAC in human A549 cells assessed as increase in histone H3 acetylation at 5 uM incubated for 48 hrs by immunoblot analysis. The class given is cell-based.
Conditions: not given
In general terms: In western blotting, separated proteins are transferred to a membrane and probed.
`Cl.Cl.Nc1ccccc1NC(=O)c1ccc(COc2ccc(CNC(=O)[C@H]3CCCN3)cc2)cc1`: the inhibition result was “Active”.

In another data set the target is T4, Protein deacetylase HDAC6 (Homo sapiens) (UniProt Q9UBN7).
T4 sequence (whole entry): T1 sequence (Q9UBN7 whole entry)
Nature of the data set: Inhibition of HDAC6 in human A549 cells assessed as increase in acetylated alpha-tubulin level at 5 uM incubated for 48 hrs by immunoblot analysis. The class given is cell-based.
Conditions: not given
For `Cl.Cl.Nc1ccccc1NC(=O)c1ccc(COc2ccc(CNC(=O)[C@H]3CCCN3)cc2)cc1`, the inhibition result is “inactive”.

The target in the next data set is T3, Class 1 histone deacetylase (Homo sapiens). The experiment in a line: Inhibition of class I HDAC in human A549 cells assessed as downregulation of EGFR protein expression at 5 uM incubated for 48 hrs by western blot analysis.
Conditions: not given
The class given is cell-based.
Consider `Cl.Cl.Nc1ccccc1NC(=O)c1ccc(COc2ccc(CNC(=O)[C@H]3CCCN3)cc2)cc1`, for which the inhibition result was “Active”.

The test system of the next data set is Mus musculus. Nature of the data set: Anti-fibrotic activity against BLM-induced pulmonary fibrosis C57BL/6 mouse model assessed as reduction in pulmonary edema by measuring decrease in total protein concentration in BALF at 30 mg/kg, ip bid for 15 days starting from 1 day before BLM challenge by Bradford assay. The class given is functional, organism-based. The settings on record: time 15.0 day.
`Cl.Cl.Nc1ccccc1NC(=O)c1ccc(COc2ccc(CNC(=O)[C@H]3CCCN3)cc2)cc1`: the outcome was Active.

A further data set concerns Mus musculus. The experiment in a line: Anti-fibrotic activity against BLM-induced pulmonary fibrosis C57BL/6 mouse model assessed as reduction in pulmonary inflammation by measuring decrease in cell number infiltration in BALF at 30 mg/kg, ip bid for 15 days starting from 1 day before BLM challenge by hematocytometer analysis. The class given is functional, organism-based. The settings on record: time 15.0 day.
Take `Cl.Cl.Nc1ccccc1NC(=O)c1ccc(COc2ccc(CNC(=O)[C@H]3CCCN3)cc2)cc1`: the result was Active.

A further data set relates to Mus musculus. The experiment in a line: Anti-fibrotic activity against BLM-induced pulmonary fibrosis C57BL/6 mouse model assessed as reduction in soluble collagen protein level in BALF at 30 mg/kg, ip bid for 15 days starting from 1 day before BLM challenge by Direct Red assay. The class given is functional, organism-based. The settings on record: time 15.0 day.
Turning to `Cl.Cl.Nc1ccccc1NC(=O)c1ccc(COc2ccc(CNC(=O)[C@H]3CCCN3)cc2)cc1`, the result was Active.

For the next data set, the system named is Mus musculus. Nature of the data set: Anti-fibrotic activity against BLM-induced pulmonary fibrosis C57BL/6 mouse model assessed as reduction in Col1a1 gene expression in lungs at 30 mg/kg, ip bid for 15 days starting from 1 day before BLM challenge by qRT-PCR analysis. The class given is functional, organism-based. To be noted: time 15.0 day. Background: Real-time PCR tracks product formation cycle by cycle.
For `Cl.Cl.Nc1ccccc1NC(=O)c1ccc(COc2ccc(CNC(=O)[C@H]3CCCN3)cc2)cc1`, the result was Active.

A further data set has as its system Mus musculus. The experiment in a line: Anti-fibrotic activity against BLM-induced pulmonary fibrosis C57BL/6 mouse model assessed as reduction in fibrotic masses in lungs at 30 mg/kg, ip bid for 15 days starting from 1 day before BLM challenge by Hematoxylin-Eosin staining based analysis. The settings on record: time 15.0 day. The class given is functional, organism-based.
For `Cl.Cl.Nc1ccccc1NC(=O)c1ccc(COc2ccc(CNC(=O)[C@H]3CCCN3)cc2)cc1`, the result was Active.

A further data set relates to Mus musculus. Nature of the data set: Anti-fibrotic activity against BLM-induced pulmonary fibrosis C57BL/6 mouse model assessed as reduction in collagen deposition in lungs at 30 mg/kg, ip bid for 15 days starting from 1 day before BLM challenge by Sirius Red staining based analysis. The class given is functional, organism-based. The settings on record: time 15.0 day.
`Cl.Cl.Nc1ccccc1NC(=O)c1ccc(COc2ccc(CNC(=O)[C@H]3CCCN3)cc2)cc1`: the outcome was Active.

The subject of another data set is Fibroblast. Nature of the data set: Anti-fibrotic activity in human primary lung fibroblast assessed as inhibition of TGFbeta1-induced COL1A1 mRNA expression at 5 to 10 uM pretreated for 1 hr followed by TGFbeta1 stimulation and measured after 24 hrs by qRT-PCR analysis. The class given is functional, cell-based. The settings on record: dose 5-10 µM, time 25.0 hrs.
Consider `Cl.Cl.Nc1ccccc1NC(=O)c1ccc(COc2ccc(CNC(=O)[C@H]3CCCN3)cc2)cc1`, for which the outcome was Active.
